Test results reported in patent US6576622B1, “Drug combination for the treatment of viral diseases” (University of Medicine & Dentistry of New Jersey, priority 1995, dated 2003).

Experiments:
HIV-1 IIIB = HIV-1 IIIB infection of Jurkat JE6.1 cell populations, AZT IC50 with FUdR (RT activity); assay type: cell-based; conditions: in all of these studies
Experimental: HIV-1 production in infected, cultures was determined by a ^32P-based assay as described (34). RT activity was determined by […] of ^32P bound to the DE81 paper by using a Molecular Dynamics phosphorimager. The results are reported as pixel units per microliter of the reaction mixture.
In these experiments, three populations of cells were studied.

[1] = MTT cytotoxicity assay in R116 cells; assay type: cell-based; conditions: human, R116 cell line, three days, FIG. 8, read-out: ED50 (cytotoxicity)
Experimental: Three days later, drug cytotoxicity was quantitated with a standard MTT assay in which the uptake and metabolism of 3-[4,5-dimethylthiazol-2-yl]2,5-dephenyltetrazolium bromide (MTT) by cells was measured (14). The amount of formazan produced in 2 hours was determined by dissolving the product in 100% DMSO and then measuring the absorbance at 570 nm.
HeLa-T4 is the parental cell line.
Cells sensitive, parental HT4 (open circle), S1 (solid square), Spool (solid circle) and refractory, R116 (open square) were grown in the presence of various concentrations of FUdR. Three days latter, cell viability was determined by the MTT reduction method.

in vitro = conditions: human
HIV-gpt [2] = assay: HIV-gpt colony formation after infection of HeLa-T4 cells in the presence of antiretroviral agents; assay type: cell-based; conditions: HeLa-T4; plasmid derived HIV-gpt (COS cells); AZT 10 μM, DDI 50 μM, D4T 50 μM; no drug control 8800
HIV-LacZ = assay type: cell-based
HIV-gpt [3] = conditions: in the presence of TIBO R82150; earlier study (26); cited from earlier work

**Q.** What does the source list for `O=c1[nH]c(=O)n([C@H]2C[C@H](O)[C@@H](CO)O2)cc1F` [FUdR, 2′-deoxy-5-fluorouridine]?
**A.** antiviral activity when used by itself (HIV-1 IIIB): moderate antiviral activity; EC50 at 3 days [1]: 0.7 µM; EC50 at 3 days (in vitro): 7 µM

**Q.** Which results are given for `CC(C)=CCN1Cc2cccc3[nH]c(=S)n(c23)C[C@@H]1C` [TIBO]?
**A.** Number of colonies (HIV-gpt [2]): 3; selection of cells “persistently resistant” to the antiretroviral effects of the drug (HIV-LacZ; HeLa-T4, identical techniques as for nucleoside analogs): no cells “persistently resistant”; Number of “persistently resistance” colonies (HIV-LacZ; colonies from HIV-gpt infection of HeLa-T4 in presence of drug, resistant/tested): 0/3; Frequency (HIV-LacZ; frequency of persistently resistant colonies, HeLa-T4, plasmid derived HIV-gpt): 0; prevalence of infection with COS-cell derived virus versus HIV-gpt rescued by replication-competent virus (HIV-gpt [3]): twenty fold lower
